Test results taken from patent US7674807B2, “Heterocycle-substituted n-phenyl-phthalamide derivatives, related compounds and their use as insecticides” (Bayer CropScience AG, priority 2004, dated 2010).

Columns and labels:
[1] = system: larva of Spodoptera litura; experiment: Test against larva of Spodoptera litura (leaf dip, sweet potato leaves); assay type: in vivo; conditions: 20 ppm concentration of the active component; third instar larvae; counted after 7 days; 25° C.
Method: Preparation of Test Solution:
In order to make an appropriate formulation of an active compound, 1 part by weight of the active compound was mixed with the above-mentioned amount of solvent containing the above-mentioned amount of emulsifier and the mixture was diluted with water to a prescribed concentration.
Leaves of sweet potato were soaked in the test solution diluted to a prescribed concentration with water, dried in the air and put in a dish of 9 cm diameter.
10 larvae of Spodoptera litura at the third instar were placed on the leaves and kept in a room at the constant temperature of 25° C. After 2 and 4 days further leaves of sweet potato were added and after 7 days the number of dead larvae was counted and the rate of death was calculated.
In this test the results of 2 dishes at 1 section were averaged.

[2] = system: larva of Cnaphalocrocis medinalis Guenee; experiment: Test against larva of Cnaphalocrocis medinalis Guenee (sprayed paddy rice foliage); assay type: in vivo; conditions: 20 ppm concentration of the active component; second instar larvae; counted after 7 days; 25° C.
Method: Paddy rice (variety: Tamanishiki) planted in a pot was treated by spraying 50 ml per pot of the diluted aqueous solution of the prescribed concentration of the active compound prepared in the same manner as in the above-mentioned Biological Test Example 1. After the treated rice plant was dried in the air, their foliage part was cut in 4-5 cm length, which were put in a dish with 9 cm diameter with a sheet of filter paper and 2 ml of water. Five larvae of Cnaphalocrocis medinalis Guenee at the second instar were put in the dish that was placed in a room at the constant temperature of 25° C. After 2 and 4 days, each rest (each ⅓ amount) of foliage parts of rice plant were cut in the same manner and added to the dish. After 7 days the number of dead larvae was counted and the rate of death was calculated. In this test the results of 2 dishes at 1 section were averaged.

SMILES	controlling effect, rate of death [1]	controlling effect, rate of death [2]
Cc1cc(Cc2c(C(F)(F)F)nn(C(F)F)c2OC(F)F)ccc1NC(=O)c1cccc(I)c1C(=O)NC(C)CS(C)(=O)=O (stereo not shown) [compound 264]	100%	100%
Cc1cc(-c2cc(C(F)(F)F)nn2CC(F)(F)F)ccc1NC(=O)c1cccc(I)c1C(=O)NC(C)CS(C)(=O)=O (stereo not shown) [compound 508]	100%	100%
CSC[C@H](C)NC(=O)c1c(I)cccc1C(=O)Nc1ccc(Cn2cc(C(F)(F)C(F)(F)C(F)(F)C(F)(F)F)c(C(F)(F)C(F)(F)F)n2)cc1C [compound 664]	100%	100%
CSC[C@H](C)NC(=O)c1c(C(=O)Nc2ccc(Cn3nc(C(F)(F)F)cc3C(F)(F)F)cc2C)cccc1S(C)(=O)=O [compound 552]	100%	100%
CSC[C@H](C)NC(=O)c1c(Cl)cccc1C(=O)Nc1ccc(Cn2cc(C(F)(F)C(F)(F)F)c(C(F)(F)F)n2)cc1C [compound 637]	100%	100%
Cc1cc(Cn2nc(C(F)(F)F)nc2C(F)(F)F)ccc1NC(=O)c1cccc(Cl)c1C(=O)NC(C)(C)CS(C)(=O)=O [compound 139]	100%	100%
CSCC(C)NC(=O)c1c(Br)cccc1C(=O)Nc1ccc(Cn2nc(C(F)(F)F)nc2C(F)(F)F)cc1C (stereo not shown) [compound 177]	100%	100%
CSC[C@H](C)NC(=O)c1c(I)cccc1C(=O)Nc1ccc(C(C)n2nc(C(F)(F)F)cc2C(F)(F)F)cc1C (stereo partly shown) [compound 562]	100%	100%
CSCC(C)(C)NC(=O)c1c(I)cccc1C(=O)Nc1ccc(Oc2nc(C(F)(F)F)cc(C(F)(F)F)n2)cc1C [compound 308]	100%	100%
Cc1cc(Cn2nc(C(F)(F)F)cc2C(F)(F)F)ccc1NC(=O)c1cccc(I)c1C(=O)NC(C)C [compound 81]	100%	100%
Cc1cc(Cn2nc(C(F)(F)F)nc2C(F)F)ccc1NC(=O)c1cccc(I)c1C(=O)NC(C)CS(C)(=O)=O (stereo not shown) [compound 242]	100%	100%
Cc1cc(Cn2cc(C(F)(F)C(F)(F)F)c(C(F)(F)F)n2)ccc1NC(=O)c1cccc(Cl)c1C(=O)N[C@@H](C)C[S+](C)[O-] (stereo partly shown) [compound 638]	100%	100%
CCS(=O)(=O)CC(C)NC(=O)c1c(I)cccc1C(=O)Nc1ccc(Cn2nc(C(F)(F)F)cc2C(F)(F)F)cc1C (stereo not shown) [compound 93]	100%	100%
CSCC(C)(C)NC(=O)c1c(Cl)cccc1C(=O)Nc1ccc(Cn2nc(C(F)(F)F)nc2C(F)(F)F)cc1C [compound 137]	100%	100%
Cc1cc(Cn2nc(C(F)(F)F)nc2C(F)(F)F)ccc1NC(=O)c1cccc(OS(C)(=O)=O)c1C(=O)NC(C)C[S+](C)[O-] (stereo not shown) [compound 253]	100%	100%
Cc1cc(C(C)n2nc(C(F)(F)F)cc2C(F)(F)F)ccc1NC(=O)c1cccc(I)c1C(=O)N[C@@H](C)CS(C)(=O)=O (stereo partly shown) [compound 564]	100%	100%
Cc1cc(Cn2nc(C(F)(F)F)cc2C(F)(F)F)ccc1NC(=O)c1cccc(I)c1C(=O)N[C@@H](C)CSC(C)C [compound 539]	100%	100%
CSC[C@H](C)NC(=O)c1c(I)cccc1C(=O)Nc1ccc(Cn2nc(C(F)(F)F)c(I)c2C(F)(F)F)cc1C [compound 554]	100%	100%
Cc1cc(Cc2c(OC(F)F)nn(C(F)F)c2C(F)(F)F)ccc1NC(=O)c1cccc(I)c1C(=O)NC(C)CS(C)(=O)=O (stereo not shown) [compound 270]	100%	100%
Cc1cc(Cn2cc(C(F)(F)C(F)(F)C(F)(F)F)c(C(F)(F)C(F)(F)C(F)(F)F)n2)ccc1NC(=O)c1cccc(I)c1C(=O)N[C@@H](C)C[S+](C)[O-] (stereo partly shown) [compound 671]	100%	100%
Cc1cc(-n2nc(C(F)(F)F)cc2C(F)(F)F)ccc1NC(=O)c1cccc(I)c1C(=O)NC(C)CS(C)(=O)=O (stereo not shown) [compound 417]	100%	100%

SMILES	controlling effect, rate of death [1]	controlling effect, rate of death [2]
CSC[C@H](C)NC(=O)c1c(Cl)cccc1C(=O)Nc1ccc(Cn2nc(SC(F)(F)C(F)(F)C(F)(F)F)nc2C(F)(F)F)cc1C [compound 804]	100%	100%
CSC[C@H](C)NC(=O)c1c(Cl)cccc1C(=O)Nc1ccc(Cn2nc(C(F)(F)C(F)(F)F)nc2C(F)(F)C(F)(F)F)cc1C [compound 681]	100%	100%
CSC[C@H](C)NC(=O)c1c(Cl)cccc1C(=O)Nc1ccc(Cn2cc(C(F)(F)C(F)(F)F)c(C(F)(F)C(F)(F)C(F)(F)F)n2)cc1C [compound 665]	100%	100%
CSC[C@H](C)NC(=O)c1c(Cl)cccc1C(=O)Nc1ccc(C(C)n2nc(C(F)(F)F)nc2C(F)(F)F)cc1C (stereo partly shown) [compound 568]	100%	100%
Cc1cc(Cn2nc(C(F)(F)F)nc2C(F)(F)F)ccc1NC(=O)c1cccc(I)c1C(=O)NC(C)C [compound 210]	100%	100%
Cc1cc(Cn2nc(C(F)(F)F)cc2C(F)(F)F)ccc1NC(=O)c1cccc(I)c1C(=O)NC(C)CS(C)(=O)=O (racemic) [compound 89]	100%	100%
CSCC(C)NC(=O)c1c(OS(C)(=O)=O)cccc1C(=O)Nc1ccc(Cn2nc(C(F)(F)F)cc2C(F)(F)F)cc1C (stereo not shown) [compound 128]	100%	100%
Cc1cc(Cn2cc(C(F)(F)C(F)(F)C(F)(F)F)c(C(F)(F)C(F)(F)F)n2)ccc1NC(=O)c1cccc(Cl)c1C(=O)N[C@@H](C)CS(C)(=O)=O [compound 659]	100%	100%
Cc1cc(Cn2nc(C(F)(F)F)nc2C(F)(F)F)ccc1NC(=O)c1cccc(Cl)c1C(=O)NC(C)CS(C)(=O)=O (stereo not shown) [compound 145]	100%	100%
CSCC(C)NC(=O)c1c(Br)cccc1C(=O)Nc1ccc(Cn2nc(C(F)(F)F)cc2C(F)(F)F)cc1C (stereo not shown) [compound 49]	100%	100%
Cc1cc(Cn2nc(C(F)(F)C(F)(F)F)nc2C(F)(F)F)ccc1NC(=O)c1cccc(I)c1C(=O)NC(C)CS(C)(=O)=O (stereo not shown) [compound 230]	100%	100%
CSCC(C)(C)NC(=O)c1c(I)cccc1C(=O)Nc1ccc(C(C)n2nc(C(F)(F)F)cc2C(F)(F)F)cc1C (stereo not shown) [compound 565]	100%	100%
Cc1cc(Cn2nc(C(F)(F)F)cc2C(F)(F)F)ccc1NC(=O)c1cccc(Cl)c1C(=O)NC(C)C[S+](C)[O-] (mixture of isomers) [compound 14]	100%	100%
CSC[C@H](C)NC(=O)c1c(Cl)cccc1C(=O)Nc1ccc(Cn2nc(C(F)(F)C(F)(F)F)cc2C(F)(F)C(F)(F)F)cc1C [compound 626]	100%	100%
CSCC(C)NC(=O)c1c(I)cccc1C(=O)Nc1ccc(-n2nc(C(F)(F)C(F)(F)F)cc2C(F)(F)F)cc1C (stereo not shown) [compound 473]	100%	100%
Cc1cc(-c2cc(OC(F)F)n(C(F)F)n2)ccc1NC(=O)c1cccc(I)c1C(=O)NC(C)CS(C)(=O)=O (stereo not shown) [compound 520]	100%	100%
Cc1cc(Cn2nc(C(F)(F)F)cc2C(F)(F)F)ccc1NC(=O)c1cccc([N+](=O)[O-])c1C(=O)N[C@@H](C)CS(C)(=O)=O [compound 545]	100%	100%
Cc1cc(C(C)n2nc(C(F)(F)F)nc2C(F)(F)F)ccc1NC(=O)c1cccc(I)c1C(=O)N[C@@H](C)CS(C)(=O)=O (stereo partly shown) [compound 573]	100%	100%
CSCC(C)NC(=O)c1c(I)cccc1C(=O)Nc1ccc(-c2cc(C(F)(F)F)nn2C(F)F)cc1C (stereo not shown) [compound 512]	100%	100%
Cc1cc(Cn2nc(C(F)(F)F)nc2C(F)(F)F)ccc1NC(=O)c1cccc([N+](=O)[O-])c1C(=O)N[C@@H](C)CS(C)(=O)=O [compound 548]	100%	100%
